Where “and” joins values, the source holds several entries; their conditions need not be identical. Equal values may be shown once.
Key:
Assay type in all cases: cell-based
IKZF4 Eos = target: T1, IKZF4 Eos (Homo sapiens, UniProt Q96SW2+Q9H2S9); experiment: Human Regulatory T Cell Reprogramming Assay; conditions: for DC50: 12-13 days, vs DMSO alone; for IKZF4*** Eos max % or deg. observed: Table E summary, Human Regulatory T Cell Reprogramming Assay (C-1)
T1 construct: endogenous in cells; host or cells: primary human CD4+CD127lowCD25+ Treg cells from healthy leukopaks
T1 sequence (Q9H2S9 whole entry): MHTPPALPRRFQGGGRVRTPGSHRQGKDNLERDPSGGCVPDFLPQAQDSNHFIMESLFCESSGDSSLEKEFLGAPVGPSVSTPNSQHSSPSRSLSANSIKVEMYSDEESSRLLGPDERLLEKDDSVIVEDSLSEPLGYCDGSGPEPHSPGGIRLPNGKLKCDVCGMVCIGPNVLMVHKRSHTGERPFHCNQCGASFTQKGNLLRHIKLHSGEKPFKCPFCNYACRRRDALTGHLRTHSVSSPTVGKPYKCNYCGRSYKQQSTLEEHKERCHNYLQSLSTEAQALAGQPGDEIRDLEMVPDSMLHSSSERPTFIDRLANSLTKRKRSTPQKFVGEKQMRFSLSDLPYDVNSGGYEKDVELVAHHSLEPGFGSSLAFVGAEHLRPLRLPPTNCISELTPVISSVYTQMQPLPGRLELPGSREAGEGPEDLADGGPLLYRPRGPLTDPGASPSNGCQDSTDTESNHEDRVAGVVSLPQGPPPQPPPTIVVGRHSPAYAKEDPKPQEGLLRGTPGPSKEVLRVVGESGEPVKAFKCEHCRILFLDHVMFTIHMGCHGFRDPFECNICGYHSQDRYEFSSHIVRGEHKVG
T1 sequence (Q96SW2 whole entry): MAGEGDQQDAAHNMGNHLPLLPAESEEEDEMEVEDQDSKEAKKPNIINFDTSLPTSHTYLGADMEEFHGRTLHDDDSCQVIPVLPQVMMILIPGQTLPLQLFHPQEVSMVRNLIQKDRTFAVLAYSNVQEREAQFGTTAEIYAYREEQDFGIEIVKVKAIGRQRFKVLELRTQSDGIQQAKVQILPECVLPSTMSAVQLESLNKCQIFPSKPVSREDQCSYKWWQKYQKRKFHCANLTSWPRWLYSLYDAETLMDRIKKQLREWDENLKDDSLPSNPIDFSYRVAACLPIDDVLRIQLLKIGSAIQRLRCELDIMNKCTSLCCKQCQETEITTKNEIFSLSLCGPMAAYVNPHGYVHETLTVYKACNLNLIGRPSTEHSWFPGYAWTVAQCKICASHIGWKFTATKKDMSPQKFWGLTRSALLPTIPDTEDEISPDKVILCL
T1 sequence (Q16531 whole entry partner): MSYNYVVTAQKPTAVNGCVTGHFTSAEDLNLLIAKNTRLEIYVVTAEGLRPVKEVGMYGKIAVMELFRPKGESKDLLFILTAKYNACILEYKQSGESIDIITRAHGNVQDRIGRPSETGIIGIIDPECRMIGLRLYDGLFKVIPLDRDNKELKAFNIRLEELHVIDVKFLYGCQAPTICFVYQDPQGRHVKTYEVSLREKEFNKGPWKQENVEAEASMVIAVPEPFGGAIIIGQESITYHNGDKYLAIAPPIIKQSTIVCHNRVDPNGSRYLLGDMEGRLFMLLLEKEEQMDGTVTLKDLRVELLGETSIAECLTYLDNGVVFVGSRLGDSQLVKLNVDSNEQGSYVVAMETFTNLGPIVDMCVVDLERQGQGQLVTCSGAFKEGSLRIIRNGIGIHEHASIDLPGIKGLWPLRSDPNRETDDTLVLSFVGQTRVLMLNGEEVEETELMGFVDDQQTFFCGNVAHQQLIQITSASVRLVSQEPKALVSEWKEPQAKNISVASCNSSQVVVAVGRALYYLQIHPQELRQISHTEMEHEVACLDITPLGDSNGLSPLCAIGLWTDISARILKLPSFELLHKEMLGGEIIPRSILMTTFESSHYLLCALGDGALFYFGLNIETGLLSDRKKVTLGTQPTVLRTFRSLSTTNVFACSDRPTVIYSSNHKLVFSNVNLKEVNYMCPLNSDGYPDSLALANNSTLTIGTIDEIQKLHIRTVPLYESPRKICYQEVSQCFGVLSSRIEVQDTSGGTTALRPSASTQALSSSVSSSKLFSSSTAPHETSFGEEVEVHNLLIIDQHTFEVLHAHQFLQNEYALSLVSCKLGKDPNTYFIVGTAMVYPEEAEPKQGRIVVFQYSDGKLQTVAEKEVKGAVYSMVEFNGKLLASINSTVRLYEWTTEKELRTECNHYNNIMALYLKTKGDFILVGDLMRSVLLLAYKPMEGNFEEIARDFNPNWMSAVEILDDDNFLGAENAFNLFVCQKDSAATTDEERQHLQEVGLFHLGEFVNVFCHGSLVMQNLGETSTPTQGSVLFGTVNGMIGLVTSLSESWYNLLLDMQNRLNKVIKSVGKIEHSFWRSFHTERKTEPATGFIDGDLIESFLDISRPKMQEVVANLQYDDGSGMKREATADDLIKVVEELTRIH
Procedure: Human CD4^+ T cells were isolated from fresh healthy leukopaks (Stemcell Technologies) using the RosetteSep Human CD4^+ T cell enrichment cocktail (Stemcell Technologies) and Ficoll density gradient centrifugation. Leukopaks were diluted with an equal volume of phosphate-buffered saline (PBS [Gibco]) supplemented with 2% fetal bovine serum (FBS, VWR Lifescience) and incubated with RosetteSep Human CD4^+ T cell enrichment cocktail for 20 minutes before layering on Ficoll-Paque Plus solution (GE Health Care). The cell-rich interface layer was harvested and washed twice with PBS supplemented with 2% FBS. Regulatory T cells were then isolated manually using the EasySep Human CD4^+CD127^lowCD25^+ Regulatory T cell isolation kit (Stemcell Technologies) according to the manufacturer's instructions. Cells were rested overnight in Roswell Park Memorial Institute (RPMI) 1640 media (Gibco) supplemented with 10% FBS, Pen/Strep (Gibco), MEM-NEAA (Gibco), and sodium pyruvate (Gibco) in a humidified incubator (37 °C, 5% CO2). Cells were then stained for CD4 (clone: RPA-T4, Biolegend), CD25 (clone: 2A3, BD Biosciences), and CD127 (clone: hIL-7R-M21, BD Biosciences). CD4^+CD127^lowCD25^+ cells were sorted on a BD FACS Aria Fusion sorter to a purity of 95%) or greater. Sorted cells were immediately used or cryopreserved for downstream assays.
Fresh or cryopreserved FACS-sorted CD4^+CD127^lowCD25^+ Treg cells were cultured at 25,000-50,000 cells/well of 96-well round bottom plates in RPMI 1640 media (Gibco) supplemented with 10% FBS, Pen/Strep (Gibco), MEM-NEAA (Gibco), and sodium pyruvate (Gibco). Cells were stimulated with Treg Xpander beads (Thermo Fisher) at cells-to-beads ratio of 1:4 in the presence of 500 U/mL recombinant human IL-2 (Proleukin). Compounds were added at titrated doses and cells were incubated at 37 °C, 5% CO2 for 12-13 days. Recombinant human IL-2 and compound were replenished every 2-3 days during the entire culture duration. On day 12 or 13, cells were restimulated with phorbol 12-myristate 13-acetate (PMA,) and ionomycin in the presence of the protein transport inhibitors brefeldin A and monensin (eBioscience Cell Stimulation Cocktail plus protein transport inhibitors, 500x, Catalog number 00-4975-93) before proceeding with flow cytometry staining and analysis.
For flow cytometry staining, cells were washed twice with flow cytometry staining buffer (Thermo Fisher) and incubated in Human Tru-stain Fc block (Biolegend) for 10 minutes before adding eFluor780 viability dye (Thermo Fisher) and surface marker antibody cocktail for 30 minutes at 4 °C. Cells were then fixed and permeabilized by incubation with FoxP3 transcription factor staining buffer (Thermo Fisher) for 30 minutes at 4 °C as per the kit manufacturer's instructions. Cells were washed twice with the Perm/Wash buffer supplied in the kit as per the manufacturer's instructions and incubated overnight at 4 °C with an intracellular antibody cocktail comprised of antibodies specific for the transcription factors shown in Table C. Cells were washed twice with Perm/Wash buffer and resuspended in flow cytometry staining buffer (Thermo Fisher) prior to acquisition. Sample acquisition and analysis was performed using a BD LSRFortessa (BD Biosciences) flow cytometer. Single stain controls for each fluorochrome were prepared using UltraComp eBead Compensation Beads (Thermo Fisher). Data were analyzed using FlowJo version 10 and GraphPad Prism Software. TABLE C

IKZF1 Ikaros = IKZF1 Ikaros (Homo sapiens, UniProt Q13422+Q96SW2); experiment: Jurkat Cellular Degradation Assay; parameters: fluorescently labelled antibodies against Helios, Ikaros and Aiolos; endogenous in cells; host or cells: Jurkat cells; conditions: Jurkat cells, 24 h; for DC50: 50% reduction of protein vs DMSO alone; for IKZF1 Ikaros max % deg. observed: 100% = complete degradation
Chain of IKZF1 Ikaros (Q13422 whole entry): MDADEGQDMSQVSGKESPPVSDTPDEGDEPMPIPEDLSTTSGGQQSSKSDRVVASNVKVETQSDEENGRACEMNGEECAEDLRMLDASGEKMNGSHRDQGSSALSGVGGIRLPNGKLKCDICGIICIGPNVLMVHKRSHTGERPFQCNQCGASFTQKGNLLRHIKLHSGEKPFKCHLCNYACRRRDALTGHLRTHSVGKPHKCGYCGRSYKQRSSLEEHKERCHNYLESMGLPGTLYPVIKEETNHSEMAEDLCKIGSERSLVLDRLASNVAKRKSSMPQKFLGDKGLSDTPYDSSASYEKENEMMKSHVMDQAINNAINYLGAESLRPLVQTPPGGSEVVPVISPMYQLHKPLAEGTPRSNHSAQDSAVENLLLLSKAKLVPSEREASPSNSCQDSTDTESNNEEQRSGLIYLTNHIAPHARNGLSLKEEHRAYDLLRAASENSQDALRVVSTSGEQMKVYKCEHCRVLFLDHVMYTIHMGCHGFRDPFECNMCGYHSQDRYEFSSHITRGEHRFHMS
Chain of IKZF1 Ikaros (Q96SW2 whole entry): as the sequence (Q96SW2 whole entry) above
Chain of IKZF1 Ikaros (Q16531 whole entry partner): as the sequence (Q16531 whole entry partner) above
Procedure: (§1) Jurkat cells were plated at 80,000 cells/well in 40 µL RPMI + 10% FBS in a 384-well cell culture plate prior to using acoustic dispensing technology for adding a compound of interest. Cell cultures were incubated for 24 h at 37 °C and 5% CO2. In order to facilitate analysis, cell cultures were spun down at 200 rpm for 5 min and the supernatant was discarded. After shaking the plate to dislodge the cell pellet, cells were resuspended in 50 µL of Fixation Buffer (eBioscience FoxP3 buffer set 00-5523-00) for 60 min at room temperature. After centrifuging and discarding the supernatant, cells were permeabilized with 50 µL of Permeabilization buffer (eBioscience FoxP3 buffer set 00-5523-00) for 10 min at room temperature. Following permeabilization, cells were spun down and the supernatant was replaced with 20 µL fluorescently labelled antibodies against Helios, Ikaros and Aiolos or corresponding Isotype controls in 1× Permeabilization buffer (Ikaros-Alexa488 [Biolegend, Cat #368408, 1:50], Helios-PE [CST, Cat #29360, 1:50]. Aiolos-Alexa647 [Biolegend, Cat #371106 Biolegend, 1:25]) and staining reactions were incubated for 1 h at room temperature while protected from light. Subsequently, 30 µL of 1× Permeabilization buffer was added prior to centrifuging the cells and discarding the supernatant. Stained cells were resuspended in 25 µL of flow cytometry staining buffer [PBS + 0.2% bovine serum albumin (BSA)] and analyzed using an Intellicyt Ique Plus flow cytometer. TABLE A-1

IKZF2 Helios = IKZF2 Helios (Homo sapiens, UniProt Q96SW2+Q9UKS7); experiment: Jurkat Cellular Degradation Assay; parameters: fluorescently labelled antibodies against Helios, Ikaros and Aiolos; endogenous in cells; host or cells: Jurkat cells; conditions: for DC50: 50% reduction of protein vs DMSO alone; for IKZF2** Helios max % deg. observed: Table E summary, Jurkat Cellular Degradation Assay (A-1)
Chain of IKZF2 Helios (Q9UKS7 whole entry): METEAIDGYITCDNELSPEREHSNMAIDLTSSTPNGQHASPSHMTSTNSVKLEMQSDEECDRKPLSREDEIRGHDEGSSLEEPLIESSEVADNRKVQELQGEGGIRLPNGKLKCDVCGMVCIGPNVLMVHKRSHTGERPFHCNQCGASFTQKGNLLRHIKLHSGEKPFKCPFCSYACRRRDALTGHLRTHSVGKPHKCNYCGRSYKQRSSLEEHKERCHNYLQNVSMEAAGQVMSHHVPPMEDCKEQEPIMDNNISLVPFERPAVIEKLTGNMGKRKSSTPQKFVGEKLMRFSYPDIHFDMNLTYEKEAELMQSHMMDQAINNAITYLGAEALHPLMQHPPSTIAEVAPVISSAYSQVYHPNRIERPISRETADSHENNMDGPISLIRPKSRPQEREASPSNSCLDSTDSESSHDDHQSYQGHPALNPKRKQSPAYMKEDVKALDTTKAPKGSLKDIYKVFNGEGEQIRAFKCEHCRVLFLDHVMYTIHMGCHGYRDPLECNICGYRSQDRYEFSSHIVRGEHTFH
Chain of IKZF2 Helios (Q96SW2 whole entry): as the sequence (Q96SW2 whole entry) above
Chain of IKZF2 Helios (Q16531 whole entry partner): as the sequence (Q16531 whole entry partner) above
Procedure: as §1

IKZF3 Aiolos = IKZF3 Aiolos (Homo sapiens, UniProt Q96SW2+Q9UKT9); experiment: Jurkat Cellular Degradation Assay; parameters: fluorescently labelled antibodies against Helios, Ikaros and Aiolos; endogenous in cells; host or cells: Jurkat cells; conditions: Jurkat cells, 24 h; for DC50: 50% reduction of protein vs DMSO alone; for IKZF3 Aiolos max % deg. observed: 100% = complete degradation
Chain of IKZF3 Aiolos (Q9UKT9 whole entry): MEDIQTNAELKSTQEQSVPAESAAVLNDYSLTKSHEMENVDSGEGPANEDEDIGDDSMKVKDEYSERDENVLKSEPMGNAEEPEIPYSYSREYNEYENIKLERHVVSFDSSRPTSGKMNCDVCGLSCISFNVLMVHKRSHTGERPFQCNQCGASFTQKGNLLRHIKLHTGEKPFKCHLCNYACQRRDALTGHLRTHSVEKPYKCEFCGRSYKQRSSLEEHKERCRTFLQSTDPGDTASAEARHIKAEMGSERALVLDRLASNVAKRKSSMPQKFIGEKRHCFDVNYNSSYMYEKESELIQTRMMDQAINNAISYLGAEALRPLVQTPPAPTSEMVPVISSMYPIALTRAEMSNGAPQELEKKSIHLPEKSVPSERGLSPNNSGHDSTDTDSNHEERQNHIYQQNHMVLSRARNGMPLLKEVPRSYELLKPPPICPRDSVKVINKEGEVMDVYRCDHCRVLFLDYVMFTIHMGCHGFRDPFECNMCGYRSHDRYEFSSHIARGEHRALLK
Chain of IKZF3 Aiolos (Q96SW2 whole entry): as the sequence (Q96SW2 whole entry) above
Chain of IKZF3 Aiolos (Q16531 whole entry partner): as the sequence (Q16531 whole entry partner) above
Procedure: as §1

Row | SMILES | DC50 (IKZF4 Eos; CD4+CD127lowCD25+ Treg cells) [nM] | IKZF4*** Eos max % or deg. observed (IKZF4 Eos) [%] | DC50 (IKZF1 Ikaros) [nM] | IKZF1 Ikaros max % deg. observed (IKZF1 Ikaros) | DC50 (IKZF2 Helios; Jurkat cells, 24 h) [nM] | IKZF2** Helios max % deg. observed (IKZF2 Helios) [%] | DC50 (IKZF3 Aiolos) [nM] | IKZF3 Aiolos max % deg. observed (IKZF3 Aiolos) | IKZF4 Eos max % deg. observed (IKZF4 Eos; CD4+CD127lowCD25+ Treg cells, 12-13 days with compound) [%] | IKZF2 Helios max % deg. observed (IKZF2 Helios; Jurkat cells, 24 h, 100% = complete degradation) [%]
1 | Cc1cc(-c2ccc(-c3cn(C4CCC(=O)NC4=O)c(=O)o3)c(F)c2)nc(N)c1NCC1CCOCC1 (centres unmarked) [Example 3, 3-(5-(4-(6-amino-4-methyl-5-(((tetrahydro-2H-pyran-4-yl)methyl)amino)pyridin-2-yl)-2-fluorophenyl)-2-oxooxazol-3(2H)-yl)piperidine-2,6-dione] | 4 | 84 | 5600 | 64% and 57% | 36 | 92 | 9490 | 48% and 54% | – | –
2 | CO[C@H]1C[C@H](Oc2c(C)cc(-c3ccc(-c4cn(C5CCC(=O)NC5=O)c(=O)o4)c(F)c3)nc2N)C1 (relative stereo) [Example 2, trans 3-(5-(4-(6-amino-5-(3-methoxycyclobutoxy)-4-methylpyridin-2-yl)-2-fluorophenyl)-2-oxooxazol-3(2H)-yl)piperidine-2,6-dione] | 3 | 72 | 4380 | – | 37 | 92 | 2320 | – | – | –
3 | Cc1cc(-c2ccc(-c3cn(C4CCC(=O)NC4=O)c(=O)o3)c(F)c2)nc(N)c1COC1CCOCC1 (centres unmarked) [Example 5, 3-(5-(4-(6-Amino-4-methyl-5-(((tetrahydro-2H-pyran-4-yl)oxy)methyl)pyridin-2-yl)-2-fluorophenyl)-2-oxooxazol-3(2H)-yl)piperidine-2,6-dione] | 7 | 46 | 7900 | 51% | 50 | 92 | > 10000 | 38% | 46 | 92
4 | COC1CCN(Cc2ccc(-c3ccc(-c4cn(C5CCC(=O)NC5=O)c(=O)o4)c(F)c3)nc2N)CC1 (centres unmarked) [Example 4, 3-(5-(4-(6-amino-5-((4-methoxypiperidin-1-yl)methyl)pyridin-2-yl)-2-fluorophenyl)-2-oxooxazol-3(2H)-yl)piperidine-2,6-dione] | 4 | 80 | 1200 | 69% | 34 | 91 | 3010 | 61% | – | –
5 | O=C1CCC(n2cc(-c3ccc(Br)cc3F)oc2=O)C(=O)N1 (centres unmarked) [Comparative Compound B, 3-(5-(4-bromo-2-fluorophenyl)-2-oxooxazol-3(2H)-yl)piperidine-2,6-dione, reference compound] | > 1000 | 11 | > 10000 | 24% | > 10000 | 11 | > 10000 | 25% | – | –
6 | CC1(C)Cc2cc(-c3ccc(-c4cn(C5CCC(=O)NC5=O)c(=O)o4)c(F)c3)nc(N)c2O1 (centres unmarked) [Example 1, 3-(5-(4-(7-amino-2,2-dimethyl-2,3-dihydrofuro[2,3-c]pyridin-5-yl)-2-fluorophenyl)-2-oxooxazol-3(2H)-yl)piperidine-2,6-dione] | 2 | 84 | 1510 | 63% | 22 | 89 | 600 | 55% | – | –
7 | O=C1CCC(n2cc(-c3ccccc3)oc2=O)C(=O)N1 (centres unmarked) [Comparative Compound A, 3-(2-oxo-5-phenyloxazol-3(2H)-yl)piperidine-2,6-dione, reference compound] | > 1000 | 0 | 1520 | 70% | > 10000 | 27 | > 10000 | 52% | – | –

Reference: patent EP4568957B1, “SUBSTITUTED PHENYL OXOOXAZOLYL PIPERIDINE DIONE COMPOUNDS” (Bristol-Myers Squibb Company, priority 2023, dated 2025)
